Source: patent US20220257552A1, “METHODS OF PRESCREENING AND TREATING BREAST CANCERS WITH SELECTIVE ANDROGEN RECEPTOR MODULATORS” (priority 2021, published 2022)

Experiments:
BR-0001 TNBC = test: BR-0001 AR-positive TNBC xenograft in NSG mice; type: in vivo
Description: Xenograft experiment. NSG mice obtained from JAX labs were housed with five animals per cage and were allowed free access to tap water and commercial rat chow (Harlan Teklad 22/5 rodent diet—8640). During the course of the study, the animals were maintained on a 12 hr light:dark cycle. Animals were anesthetized and BR-0001 TNBC fragments of 1 mm^3 (approximately) were implanted subcutaneously in NSG mice. […] Tumor volume was measured thrice weekly. Tumor volume was calculated using the formula length×width×width×0.5236. Once tumors reached greater than 1500-2000 mm^3, animals were sacrificed and tumors weighted and stored for various analysis. Two regions of the same BR-0001 tumor, an AR-positive TNBC xenograft, were immunohistochemically stained with AR antibody (AR N20 from SCBT) (FIGS. 26A and 26B) and compared to an AR-negative (FIG. 26C) TNBC as a negative control. […] The tumor xenograft efficacy experimental results are provided in 27A-27C, with FIGS. 27A and 27B being replicate experiments.
Tumors from replicate experiment 2 (FIG. 27B) were fixed in formalin and paraffin embedded. Slides were cut and stained with Ki-67 antibody. Ki-67 positive cells (total 200 cells were counted in each slide) in each slide were counted and represented as % stained cells, as shown in FIG. 28B.

[1] = test system: ZR-75-1 breast cancer cells; test: ZR-75-1 cell proliferation (cell count); type: cell-based; conditions: 6 days, dose response
Description: Cells were plated at varying densities in growth medium in 96 well plates. Cells were treated as indicated in the figures and viability measured using sulforhodamine B (SRB) or the number of cells counted using Coulter counter.
Although a few previous reports have shown that MCF-7 cells express AR and respond to AR ligands (Buchanan et al. (2005) Cancer Res 65, 8487-8496), the MCF-7 cell line clone in the study lacks or minimally expresses AR, which is in concordance with other reports (De Amicis et al. (2010) Breast Cancer Res Treat 121, 1-11).

HCI-13 tumor fragments = test: HCI-13 ex vivo sponge culture, real time PCR; type: cell-based; conditions: 3 days
Description: HCI-13 tumors grown in female mice were allowed to reach 500-1000 mm^3 before the animals were sacrificed and the tumors were excised to be used for sponge culture. Patient specimens frozen in liquid nitrogen in freezing medium were used for sponge culture. […] Tumors were sliced into small pieces (˜1 mm^3) and incubated on pre-soaked gelatin sponges (5 fragments/sponge) in 12 well plates containing 1.5 mL medium (MEM+10% FBS+2 mM L-glutamine+10 μg/mL insulin+10 μg/mL hydrocortisone+penicillin:streptomycin). The cultures were performed in triplicates for HCI-13 and singly for patient specimens. Pooled samples (n=5/sponge) from each sponge constituted one sample. Tissues were harvested after 3 days of treatment, RNA extracted, and expression of various genes measured. Although the same procedure was adopted for specimens obtained from breast cancer patients, the specimens were cultured singly (n=5/sponge=one sample) and not in triplicates as performed for HCI-13.

HCI-13 tumors = test: Affymetrix microarray of HCI-13 PDX tumors; design: species or system mice; conditions: mouse, in vivo
Description: RNA from tumors was extracted and verified qualitatively and quantitatively. Total RNA (200 ng/sample; n=4/group) from each sample was amplified and labeled using the WT Plus Kit from Affymetrix and processed according to Affymetrix protocol. The arrays (Human ST2.0, Affymetrix, Santa Clara, Calif.) were washed and stained on Affymetrix Fluidics station 450 and scanned on an Affymetrix GCS 3000 scanner.
Data from microarrays were normalized using Affymetrix Expression Console. Mean, Standard Deviation, and Variance were calculated across the groups. Fold Change from vehicle-treated samples was calculated, and a fold change of 1.5 was used as cutoff Student's t-test was used to determine the significance and a cutoff of p value<0.05 was used for significance discovery. False discovery rate was calculated using Benjamini & Hochberg method, and a cutoff for FDR<0.05 was used to create a significant differential expression list. The gene candidate list was loaded to Ingenuity Pathway Analysis and gene set enrichment analysis (GSEA) performed for further discovery. Microarray experiments were performed at the UTHSC Molecular Resources Center (MRC), and data analysis was performed by the UTHSC Molecular Bioinformatics (mBio) core facility.

GAR15-13 PDX = test: GAR15-13 palbociclib-resistant PDX in NSG mice; conditions: mouse, in vivo
Description: Data were presented as mean values±s.e.m. […] Data represented the mean±s.e.m. of four replicate cell culture wells per condition. […] P values are indicated by gray asterisks, where ****P<0.0001 for all highlighted comparisons.
Tissue samples from an ER-positive, PR-negative, and HER2-negative (ER^+, PR^−, HER2^−) patient that progressed on (i.e., was resistant to) palbociclib were implanted into animal (NSG mice) models and grown as a patient-derived xenograft (PDX). […] This human tumor model also had amplification of the cyclin D1 (CCND1^Amp) gene which has been implicated as a driver of therapeutic resistance to CDKi. […] This is also observed in other models tested in vitro including a palbociclib resistant MCF-7 (MCF7 palbo^R) line (FIG. 44B).

C[C@](O)(COc1ccc(C#N)cc1)C(=O)Nc1ccc(C#N)c(C(F)(F)F)c1 [Formula IX, (S)—N-(4-Cyano-3-(trifluoromethyl)phenyl)-3-(4-cyanophenoxy)-2-hydroxy-2-methylpropanamide]
tumor growth (BR-0001 TNBC; 10 mg/kg/day Formula IX or enzalutamide orally): some tumor growth inhibition | tumor weight reduction (BR-0001 TNBC; experiment 2): ~40% | proliferation [1]: significantly reduced dose dependently | inhibition of ER-induced pS2 and PR gene expression (HCI-13 tumor fragments; 10 nM DHT, 1 μM Formula IX, 100 nM fulvestrant): effective | AR-target gene FKBP5 expression (HCI-13 tumor fragments): induced | MKI67 expression (HCI-13 tumor fragments): inhibited | members of histone group inhibited (HCI-13 tumors): About 17 | tumor growth response (GAR15-13 PDX): responsive
